# Data reported in ChEMBL document CHEMBL5321262, “Antiviral Activity of Cannabidiolic Acid and Its Methyl Ester against SARS-CoV-2” (J Nat Prod, 2023).
# Activity calls are given as the source filed them. The rule behind the calls is not given here.
# Tests used:
# SARS-CoV-2 [1] = test: Antiviral activity against SARS-CoV-2 variant Omicron BA.4 infected African green monkey Vero E6 cells assessed as reduction in virus-induced cytopathic effect preincubated with virus for 1 hr followed by infection with cells and measured after 72 hrs by microscopic analysis; format: functional, organism-based; conditions: Severe acute respiratory syndrome coronavirus 2, time 73.0 hrs
# SARS-CoV-2 [2] = test: Antiviral activity against SARS-CoV-2 variant Delta infected in African green monkey Vero E6 cells assessed as reduction in virus-induced cytopathic effect preincubated with virus for 1 hr followed by infection with cells and measured after 72 hrs by microscopic analysis; format: functional, organism-based; conditions: Severe acute respiratory syndrome coronavirus 2, time 73.0 hrs
# SARS-CoV-2 [3] = test: Antiviral activity against SARS-CoV-2 variant Omicron BA.3 infected African green monkey Vero E6 cells assessed as reduction in virus-induced cytopathic effect preincubated with virus for 1 hr followed by infection with cells and measured after 72 hrs by microscopic analysis; format: functional, organism-based; conditions: Severe acute respiratory syndrome coronavirus 2, time 73.0 hrs
# SARS-CoV-2 [4] = test: Antiviral activity against SARS-CoV-2 variant Omicron BA.1 infected in African green monkey Vero E6 cells assessed as reduction in virus-induced cytopathic effect preincubated with virus for 1 hr followed by infection with cells and measured after 72 hrs by microscopic analysis; format: functional, organism-based; conditions: Severe acute respiratory syndrome coronavirus 2, time 73.0 hrs
# SARS-CoV-2 [5] = test: Antiviral activity against SARS-CoV-2 variant Omicron BA.2 infected in African green monkey Vero E6 cells assessed as reduction in virus-induced cytopathic effect preincubated with virus for 1 hr followed by infection with cells and measured after 72 hrs by microscopic analysis; format: functional, organism-based; conditions: Severe acute respiratory syndrome coronavirus 2, time 73.0 hrs
# SARS-CoV-2 [6] = test: Antiviral activity against SARS-CoV-2 variant Omicron BA.5 infected African green monkey Vero E6 cells assessed as reduction in virus-induced cytopathic effect preincubated with virus for 1 hr followed by infection with cells and measured after 72 hrs by microscopic analysis; format: functional, organism-based; conditions: Severe acute respiratory syndrome coronavirus 2, time 73.0 hrs
# SARS-CoV-2 [7] = test: Antiviral activity against SARS-CoV-2 variant Omicron BA.1 infected in African green monkey Vero E6 cells assessed as inhibition of virus titers of progeny virus in supernatant at 75 uM measured after 72 hrs by CPE assay relative to control; format: functional; conditions: Severe acute respiratory syndrome coronavirus 2, Omicron BA.1, Vero C1008
# SARS-CoV-2 [8] = test: Antiviral activity against SARS-CoV-2 variant Omicron BA.5 infected in African green monkey Vero E6 cells assessed as reduction in viral replication at 75 uM measured at 72 hrs post-infection by qRT-PCR analysis; format: functional, organism-based; conditions: Severe acute respiratory syndrome coronavirus 2
# SARS-CoV-2 [9] = test: Antiviral activity against SARS-CoV-2 variant Omicron BA.1 infected in African green monkey Vero E6 cells assessed as reduction in viral replication at 75 uM measured at 72 hrs post-infection by qRT-PCR analysis; format: functional, organism-based; conditions: Severe acute respiratory syndrome coronavirus 2
# SARS-CoV-2 [10] = test: Antiviral activity against SARS-CoV-2 variant Omicron BA.5 infected in African green monkey Vero E6 cells assessed as reduction in virus titers of progeny virus in supernatant measured after 72 hrs by CPE assay; format: functional, organism-based; conditions: Severe acute respiratory syndrome coronavirus 2, Omicron BA.5, Vero C1008, 72 h
# SARS-CoV-2 [11] = test: Antiviral activity against SARS-CoV-2 variant Omicron BA.2 infected in African green monkey Vero E6 cells assessed as reduction in virus titers of progeny virus in supernatant measured after 72 hrs by CPE assay; format: functional, organism-based; conditions: Severe acute respiratory syndrome coronavirus 2, Omicron BA.2, Vero C1008, 72 h
# SARS-CoV-2 [12] = test: Antiviral activity against SARS-CoV-2 variant Omicron BA.3 infected in African green monkey Vero E6 cells assessed as reduction in viral replication at 75 uM measured at 72 hrs post-infection by qRT-PCR analysis; format: functional, organism-based; conditions: Severe acute respiratory syndrome coronavirus 2
# SARS-CoV-2 [13] = test: Antiviral activity against SARS-CoV-2 variant Omicron BA.4 infected in African green monkey Vero E6 cells assessed as inhibition of virus titers of progeny virus in supernatant at 75 uM measured after 72 hrs by CPE assay relative to control; format: functional; conditions: Severe acute respiratory syndrome coronavirus 2, Omicron BA.4, Vero C1008
# SARS-CoV-2 [14] = test: Antiviral activity against SARS-CoV-2 variant Omicron BA.4 infected in African green monkey Vero E6 cells assessed as reduction in virus titers of progeny virus in supernatant measured after 72 hrs by CPE assay; format: functional, organism-based; conditions: Severe acute respiratory syndrome coronavirus 2, Omicron BA.4, Vero C1008, 72 h
# SARS-CoV-2 [15] = test: Antiviral activity against SARS-CoV-2 variant Omicron BA.1 infected in African green monkey Vero E6 cells assessed as reduction in virus-induced cytopathic effect at 75 uM preincubated with virus for 1 hr followed by infection with cells and measured after 72 hrs by microscopic analysis; format: functional, organism-based; conditions: Severe acute respiratory syndrome coronavirus 2, time 73.0 hrs
# SARS-CoV-2 [16] = test: Antiviral activity against SARS-CoV-2 variant Omicron BA.3 infected African green monkey Vero E6 cells assessed as reduction in virus-induced cytopathic effect at 75 uM preincubated with virus for 1 hr followed by infection with cells and measured after 72 hrs by microscopic analysis; format: functional, organism-based; conditions: Severe acute respiratory syndrome coronavirus 2, time 73.0 hrs
# SARS-CoV-2 [17] = test: Antiviral activity against SARS-CoV-2 variant Delta infected in African green monkey Vero E6 cells assessed as inhibition of virus titers of progeny virus in supernatant at 75 uM measured after 72 hrs by CPE assay relative to control; format: functional; conditions: Severe acute respiratory syndrome coronavirus 2, Delta, Vero C1008
# SARS-CoV-2 [18] = test: Antiviral activity against SARS-CoV-2 variant Delta infected in African green monkey Vero E6 cells assessed as reduction in virus titers of progeny virus in supernatant measured after 72 hrs by CPE assay; format: functional, organism-based; conditions: Severe acute respiratory syndrome coronavirus 2, Delta, Vero C1008, 72 h
# SARS-CoV-2 [19] = test: Antiviral activity against SARS-CoV-2 variant Delta infected in African green monkey Vero E6 cells assessed as reduction in viral replication at 75 uM measured at 72 hrs post-infection by qRT-PCR analysis; format: functional, organism-based; conditions: Severe acute respiratory syndrome coronavirus 2
# SARS-CoV-2 [20] = test: Antiviral activity against SARS-CoV-2 variant Omicron BA.2 infected in African green monkey Vero E6 cells assessed as inhibition of virus titers of progeny virus in supernatant at 75 uM measured after 72 hrs by CPE assay relative to control; format: functional; conditions: Severe acute respiratory syndrome coronavirus 2, Omicron BA.2, Vero C1008
# SARS-CoV-2 [21] = test: Antiviral activity against SARS-CoV-2 variant Omicron BA.3 infected in African green monkey Vero E6 cells assessed as reduction in virus titers of progeny virus in supernatant measured after 72 hrs by CPE assay; format: functional, organism-based; conditions: Severe acute respiratory syndrome coronavirus 2, Omicron BA.3, Vero C1008, 72 h
# SARS-CoV-2 [22] = test: Antiviral activity against SARS-CoV-2 variant Omicron BA.4 infected in African green monkey Vero E6 cells assessed as reduction in viral replication at 75 uM measured at 72 hrs post-infection by qRT-PCR analysis; format: functional, organism-based; conditions: Severe acute respiratory syndrome coronavirus 2
# SARS-CoV-2 [23] = test: Antiviral activity against SARS-CoV-2 variant Omicron BA.2 infected in African green monkey Vero E6 cells assessed as reduction in viral replication at 75 uM measured at 72 hrs post-infection by qRT-PCR analysis; format: functional, organism-based; conditions: Severe acute respiratory syndrome coronavirus 2
# SARS-CoV-2 [24] = test: Antiviral activity against SARS-CoV-2 variant Omicron BA.2 infected in African green monkey Vero E6 cells assessed as reduction in virus-induced cytopathic effect at 75 uM preincubated with virus for 1 hr followed by infection with cells and measured after 72 hrs by microscopic analysis; format: functional, organism-based; conditions: Severe acute respiratory syndrome coronavirus 2, time 73.0 hrs
# SARS-CoV-2 [25] = test: Antiviral activity against SARS-CoV-2 variant Delta infected in African green monkey Vero E6 cells assessed as reduction in virus-induced cytopathic effect at 75 uM preincubated with virus for 1 hr followed by infection with cells and measured after 72 hrs by microscopic analysis; format: functional, organism-based; conditions: Severe acute respiratory syndrome coronavirus 2, time 73.0 hrs
# SARS-CoV-2 [26] = test: Antiviral activity against SARS-CoV-2 variant Omicron BA.1 infected in African green monkey Vero E6 cells assessed as reduction in virus titers of progeny virus in supernatant measured after 72 hrs by CPE assay; format: functional, organism-based; conditions: Severe acute respiratory syndrome coronavirus 2, Omicron BA.1, Vero C1008, 72 h
# SARS-CoV-2 [27] = test: Antiviral activity against SARS-CoV-2 variant Omicron BA.3 infected in African green monkey Vero E6 cells assessed as inhibition of virus titers of progeny virus in supernatant at 75 uM measured after 72 hrs by CPE assay relative to control; format: functional; conditions: Severe acute respiratory syndrome coronavirus 2, Omicron BA.3, Vero C1008
# SARS-CoV-2 [28] = test: Antiviral activity against SARS-CoV-2 variant Omicron BA.4 infected African green monkey Vero E6 cells assessed as reduction in virus-induced cytopathic effect at 75 uM preincubated with virus for 1 hr followed by infection with cells and measured after 72 hrs by microscopic analysis; format: functional, organism-based; conditions: Severe acute respiratory syndrome coronavirus 2, time 73.0 hrs
# SARS-CoV-2 [29] = test: Antiviral activity against SARS-CoV-2 variant Omicron BA.5 infected African green monkey Vero E6 cells assessed as reduction in virus-induced cytopathic effect at 75 uM preincubated with virus for 1 hr followed by infection with cells and measured after 72 hrs by microscopic analysis; format: functional, organism-based; conditions: Severe acute respiratory syndrome coronavirus 2, time 73.0 hrs
# SARS-CoV-2 [30] = test: Antiviral activity against SARS-CoV-2 variant Omicron BA.5 infected in African green monkey Vero E6 cells assessed as inhibition of virus titers of progeny virus in supernatant at 75 uM measured after 72 hrs by CPE assay relative to control; format: functional; conditions: Severe acute respiratory syndrome coronavirus 2, Omicron BA.5, Vero C1008
structure (smiles),measurement,setting,value
C=C(C)[C@@H]1CCC(C)=C[C@H]1c1c(O)cc(CCCCC)cc1O [CANNABIDIOL],Activity,SARS-CoV-2 [1],inactive
same,Activity,SARS-CoV-2 [2],inactive
same,Activity,SARS-CoV-2 [3],inactive
same,Activity,SARS-CoV-2 [4],inactive
same,Activity,SARS-CoV-2 [5],inactive
same,Activity,SARS-CoV-2 [6],inactive
CCCCCc1cc(O)c2c(c1)OC(C)(CCC=C(C)C)C=C2 (stereo not given) [CANNABICHROMENE],Activity,SARS-CoV-2 [1],inactive
same,Activity,SARS-CoV-2 [2],inactive
same,Activity,SARS-CoV-2 [3],inactive
same,Activity,SARS-CoV-2 [4],inactive
same,Activity,SARS-CoV-2 [5],inactive
same,Activity,SARS-CoV-2 [6],inactive
CCCCCc1cc(O)c(C/C=C(\C)CCC=C(C)C)c(O)c1C(=O)O [CANNABIGEROLIC ACID],Activity,SARS-CoV-2 [1],inactive
same,Activity,SARS-CoV-2 [2],inactive
same,Activity,SARS-CoV-2 [3],inactive
same,Activity,SARS-CoV-2 [4],inactive
same,Activity,SARS-CoV-2 [5],inactive
same,Activity,SARS-CoV-2 [6],inactive
C=C(C)[C@@H]1CCC(C)=C[C@H]1c1c(O)cc(CCCCC)c(C(=O)O)c1O [CANNABIDIOLIC ACID],inhibition at 75 µM,SARS-CoV-2 [7],> 90%
same,Activity,SARS-CoV-2 [8],Active
same,Activity,SARS-CoV-2 [9],Active
same,IC50,SARS-CoV-2 [10],47.5 µM
same,IC50,SARS-CoV-2 [11],35.1 µM
same,Activity,SARS-CoV-2 [12],Active
same,inhibition at 75 µM,SARS-CoV-2 [13],> 90%
same,IC50,SARS-CoV-2 [14],47.7 µM
same,Activity,SARS-CoV-2 [15],Active
same,Activity,SARS-CoV-2 [16],Active
same,inhibition at 75 µM,SARS-CoV-2 [17],> 90%
same,IC50,SARS-CoV-2 [18],30.7 µM
same,Activity,SARS-CoV-2 [19],Active
same,inhibition at 75 µM,SARS-CoV-2 [20],> 90%
same,IC50,SARS-CoV-2 [21],31.7 µM
same,Activity,SARS-CoV-2 [22],Active
same,Activity,SARS-CoV-2 [23],Active
same,Activity,SARS-CoV-2 [24],Active
same,Activity,SARS-CoV-2 [25],Active
same,IC50,SARS-CoV-2 [26],45.4 µM
same,inhibition at 75 µM,SARS-CoV-2 [27],> 90%
same,Activity,SARS-CoV-2 [28],Active
same,Activity,SARS-CoV-2 [29],Active
same,inhibition at 75 µM,SARS-CoV-2 [30],> 90%
CCCCCc1cc(O)c(C/C=C(\C)CCC=C(C)C)c(O)c1 [CANNABIGEROL],Activity,SARS-CoV-2 [1],inactive
same,Activity,SARS-CoV-2 [2],inactive
same,Activity,SARS-CoV-2 [3],inactive
same,Activity,SARS-CoV-2 [4],inactive
same,Activity,SARS-CoV-2 [5],inactive
same,Activity,SARS-CoV-2 [6],inactive
C=C(C)[C@@H]1CCC(C)=C[C@H]1c1c(O)cc(CCC)cc1O [CANNABIDIVARIN],Activity,SARS-CoV-2 [1],inactive
same,Activity,SARS-CoV-2 [2],inactive
same,Activity,SARS-CoV-2 [3],inactive
same,Activity,SARS-CoV-2 [4],inactive
same,Activity,SARS-CoV-2 [5],inactive
same,Activity,SARS-CoV-2 [6],inactive
CCCc1cc(O)c(C/C=C(\C)CCC=C(C)C)c(O)c1,Activity,SARS-CoV-2 [1],inactive
same,Activity,SARS-CoV-2 [2],inactive
same,Activity,SARS-CoV-2 [3],inactive
same,Activity,SARS-CoV-2 [4],inactive
same,Activity,SARS-CoV-2 [5],inactive
same,Activity,SARS-CoV-2 [6],inactive
